In US11629329B2, “Bioink compositions and methods of preparing and using the same” (Wake Forest University Health Sciences, priority 2017, dated 2023):

Columns and labels:
liver organoids [1] = experiment: cells; assay type: cell-based, human; settings: 48 hours; for EC50: liver organoids, read-out: half-maximal effective concentration (EC50), analysis of cell death
Description: (§1) Cryopreserved primary human hepatocytes were thawed according to manufacturer's protocol and the cells were directly used in experiments. LX2 hepatic stellate cells were trypsinized with 0.05% of trypsin (Hyclone) and counted. Forty thousand human hepatocytes and ten thousand LX2 hepatic stellate cells were suspended in 10 μl of formulation collagen gel (collagen, hyaluronic acid, and fibronectin) or without fibronectin for the formation of liver organoids. The organoids were engineered in an identical method to cell line organoid formation described above, except 24-well plates (Corning) were employed. The wells were filled with 2 mL of HCM media (Triangle Research Labs), which was replenished after collecting media aliquots for further analysis on day 4, 7 and 10 of the experiment. The organoids were cultured for 14 days.
The environmental toxins glyphosate, mercury chloride, and lead chloride were purchased from Sigma-Aldrich. Drugs were dissolved in diH2O for stock concentrations of 50 mM (glyphosate), 10 mM (mercury chloride), and 20 mM (lead chloride). Concentrations of 1 mM, 5 mM, 10 mM, and 20 mM were used for glyphosate. Concentrations of 10 μM, 20 μM, 50 μM, and 100 μM were used for mercury chloride. Concentrations of 1 mM, 2 mM, 5 mM, and 10 mM were used for lead chloride. The drug study was conducted for 48 hours (n=7) and liver organoids were assessed for viability with ATP assay and live/dead assay as described above.

[2] = system: LX2 hepatic stellate cells; experiment: Morphology of cells in HA-Collagen bioink with covalently bound laminin or fibronectin; assay type: cell-based; settings: 7 days, phalloidin and DAPI
Description: LX2 hepatic stellate cells were cultured within collagen or a HA-Collagen bioink with covalently bound laminin, fibronectin, or both. After 7 days, the constructs were fixed and stained with phalloidin to highlight the actin cytoskeleton of the cells and DAPI for nuclei. What is evident is that modulating laminin versus fibronectin changes the morphology and phenotype of the cells within the constructs. While not wishing to be bound to any particular theory, these changes are likely due to activation of different integrin receptors responsible for binding to collagen, laminin, and fibronectin cell adhesion motifs.

liver organoids [3] = experiment: Acetyl-para-aminophenol toxicity and NAC rescue in liver organoids (live/dead, albumin, alpha-GST); assay type: cell-based, human
Description: Drugs were dissolved in HCM media to reach the desired concentrations. […] Viability of the liver organoids was assessed using live/dead assay on day 14; albumin and alpha GST production were quantified from media collected on days 4, 7, 10, and 14, as described above.

liver organoids [4] = experiment: Recalled drug study on liver organoids (Cell-Titer Glo viability, live/dead); assay type: cell-based, human; settings: for EC50: Homo sapiens, liver organoids, 48 hours, read-out: half-maximal effective concentration (EC50), analysis of cell death
Description: as §1
The hepatoxic drugs bromfenac sodium, troglitazone and tienilic acid, recalled by the FDA, were chosen for this study.^12, 32 All the compounds were purchased from Sigma-Aldrich. Drugs were dissolved in DMSO (dimethyl sulfoxide) for stock concentrations of 100 mM. Concentrations of 1 μM, 10 μm, 100 μM, and 1000 μM were used for bromfenac sodium and tienilic acid. Concentrations of 1 μm, 10 μM, and 100 μM were used for troglitazone. The drug study was conducted for 48 hours in a 24 well plate at 37° C. with 5% CO2; each well in the plate containing one liver organoid in a 2 mL of media (control) or media with drug dissolved at the concentrations mentioned above (n≥6). The response of the liver organoids was assessed using Cell-Titer Glo Luminescent Cell Viability assay (Promega) prepared according to manufacturer's protocol. The results were quantified using the Veritas Microplate Luminometer setup according to manufacturer's instructions (Turner Bio Systems, Promega). Each condition was also subjected to live/dead staining (Thermo Fisher). Stained organoids were imaged using macro-confocal microscopy (Leica TCS LSI, Leica Microsystems).

pfHSCs = experiment: Cell adhesion and spreading behavior in bioink organoids with fibronectin; assay type: cell-based; settings: 16 μg per 10 μL construct
Description: Immobilization of fibronectin in the bioink was then verified by assessing cell adhesion and spreading behavior with pfHSCs. Fibronectin (16 μg per 10 μL construct) was added to collagen which was used to make organoids using the bioink with pfHSCs (3 million cells/mL). On days 1, 4, 7, and 10, organoids were removed from culture, fixed, and stained with phalloidin and DAPI.

HepG2 cells = experiment: Cancer organoid proliferation and viability in gel formulations, HepG2; assay type: cell-based, human; settings: days 4, 7, 10
Description: The cells were trypsinized with 0.05% of trypsin (Hyclone) and counted. […] We chose this cell density for cancer organoid formation based on the results obtained from 3D organoid research performed in our lab.^31 The gel- cell mixture was pipetted in a well of a 48-well plate (Corning, N.Y.) that was pre-coated with 200 μl of polydimethylsiloxane (PDMS; Sylgard 184 elastomer kit, Dow Corning, Midland, Mich.) prepared according to manufacturer's protocol. The organoids were then crosslinked with UV light (Dymax BlueWave 75, Torrington, Conn.) on a high-intensity setting for 3 seconds. The wells were filled with 500 μL of media, which was replenished on day 4 and day 7 of the experiment. The organoids were maintained in culture for 10 days.
Biocompatibility of the different gel formulations was assessed in human cancer cell and liver organoids on days 4, 7, and 10 (n=3) using a standard live/dead cell viability kit (Thermo Fisher, Waltham, Mass.) according to the manufacturer's recommendation. […] Proliferation of cells within the different organoids was evaluated on days 4, 7, and 10 (n=3) by quantification of mitochondrial metabolism with a CellTiter 96® Aqueous One Solution Cell Proliferation Assay kit (Promega, Madison, Wis.) according to the manufacturer's protocol. Absorbance was quantified on a Spectramax M5 plate reader (Molecular Devices, Sunnyvale, Calif.) at 490 nm.

liver organoids [5] = experiment: Liver organoids with and without fibronectin (live/dead, albumin, urea); assay type: cell-based
Description: as §1
Cell viability was determined by live/dead assays (Thermo Fisher) on day 7 and 14 using representative images and by quantification of biomarkers from media collected on days 4, 7, 10, and 14 (n=3): Alpha-Glutathione s-transferase (alpha-GST) is secreted by liver cells upon cell death. The secreted levels of alpha-GST by the organoids are quantified using a GST alpha assay kit (GS41, Oxford Biomedical Research; Rochester Hills, Mich.). Absorbance was read on a Spectramax M5 plate reader (Molecular Devices) at 450 nm for alpha-GST.
The secreted levels of albumin and urea of the liver organoids were quantified from media collected on days 4, 7, 10, and 14 (n=3) using a Human Albumin ELISA Kit (Abeam; Boston, Mass. ab108788) and Urea Assay Kit (Abcam, ab83362), respectively. Absorbance was read on a Spectramax M5 plate reader (Molecular Devices) at 450 nm for albumin and at 430 nm for urea.

HCT116 = experiment: Short term 5-FU drug study on organoids (MTS, live/dead ratio); assay type: cell-based; settings: drug treated organoids vs control
Description: Three bioink formulations (“HA-collagen bioink”) were prepared and the viscoelastic behavior as well as cellular behavior within the material was quantified. The HA-collagen bioinks were formulated in three concentrations: 1:2, 1:3, and 1:4 (Heprasil® from Hystem-HP kit: methacrylated collagen type-1 from Advanced Biomatrix). Collagen was prepared as instructed by Advanced Biomatrix at 6 mg/mL and Heprasil® was prepared to 1% w/v with 0.1% photointiator in DiH2O and warmed to 37° C. Bioink formulations underwent rheological, cell viability, and 3D bioprinting testing conducted on the BioBots 1 device. As a comparison, tests were performed using the a Hystem-HP kit (thiolated hyaluronic acid and gelatin) made with 0.1% photointiator in DiH2O. Rheology was performed to determine shear elastic moduli G′ and 3D bioprinting was utilized to test printability of each material. Organoids were formed in 10 μL drops of bioink with […] per organoid, containing BXP3C, HCT116, Lx2, or pfHSC cell lines. Live/dead staining and picrosirus red collagen bundling analysis was performed on Lx2 and pfHSC organoids to assess viability and micro-architecture formation. A short term 5-Fluorouracil (5-FU) drug study was also conducted on HCT116 to show drug efficacy invariance between the Hystem-HP kit and 1:3 formulated bioink. […]

[6] = organoids containing fibronectin vs without

[Cl][Hg][Cl] [mercury chloride]
EC50 (liver organoids [1]): 28.2 µM

laminin
morphology and phenotype of the cells [2]: epithelial nature

CC(=O)N[C@@H](CS)C(=O)O [NAC, N-Acetyl-L-cysteine]
cell viability of liver organoids exposed to high-concentration APAP (liver organoids [3]; 10 mM APAP with 20 mM NAC): markedly improved cell viability | albumin production (liver organoids [3]; APAP 10 mM co-incubated with NAC 20 mM, day 14): partially rescued albumin production | alpha-GST production (liver organoids [3]; APAP 10 mM with NAC 20 mM, by day 14): noticeable decrease approaching control levels

O=C(O)COc1ccc(C(=O)c2cccs2)c(Cl)c1Cl [tienilic acid]
EC50 (liver organoids [4]): 491 µM

fibronectin
cell elongation behavior earlier than in conditions without fibronectin (pfHSCs): 3 days | proliferation of encapsulated cells in the organoids (HepG2 cells): facilitated the proliferation | production of albumin (liver organoids [5]; [6]): significantly greater | production of urea (liver organoids [5]; [6]): significantly greater | cell viability, live/dead analysis (liver organoids [5]; with vs without fibronectin, 14 days): comparable cell viability | morphology and phenotype of the cells [2]: mesenchymal

Cc1c(C)c2c(c(C)c1O)CCC(C)(COc1ccc(CC3SC(=O)NC3=O)cc1)O2 (centres unmarked) [troglitazone]
EC50 (liver organoids [4]): 6.9 µM

O=c1[nH]cc(F)c(=O)[nH]1 [5-FU, 5-Fluorouracil]
metabolism, MTS assay (HCT116): lower metabolism | ratio of dead cells (HCT116): larger ratio of dead cells

Nc1c(CC(=O)O)cccc1C(=O)c1ccc(Br)cc1 [bromfenac sodium]
EC50 (liver organoids [4]): 371 µM | cell death, live/dead analysis (liver organoids [4]; at 1000 μM): near to complete cell death

O=C(O)CNCP(=O)(O)O [glyphosate]
EC50 (liver organoids [1]; Homo sapiens): 4100 µM | cell death, live/dead analysis (liver organoids [1]; at 20 mM): near to complete cell death

[Cl][Pb][Cl] [lead chloride]
EC50 (liver organoids [1]): 970 µM
